Holding throughout (type): physicochemical
A short description of data set [1]: Compatibility test of excipients (impurities over time). How it is done:
Each of mannitol, sodium starch glycolate, hydroxpropyl cellulose and glyceryl behenate was individually mixed with Compound A. The resulting mixture was tested for the impurities over time under the following conditions: lumination 4500±500 Lux; high humidity at 90±5%; high temperature at 40±2° C.; and accelerated condition at humidity of 75±5% and temperature of 40±2° C. Testing were done at day 0, day 7 and day 14. The percentage of the total impurities and the SZMD4-Z8 impurity were recorded together with other data.

A short description of data set [2]: Solubility of Compound A in solvents. An excerpt:
(§1) For example, Compound A is soluble in acetic acid and hydrochloric acid solution (0.1 M). […] Compound A's dissociation constants: pKa1 is 4.99; pKa2 is 10.26.

Another data set can be described thus: Dissociation constants.
From the text: as §1

[3] abbreviates: high temperature 40±2° C., day 7.
[4] abbreviates: high temperature 40±2° C., day 14.
[5] abbreviates: lumination 4500±500 Lux, day 14.

With `C#Cc1cccc(Nc2c(C#N)cnc3cc(OCC)c(NC(=O)/C=C/CN(C)C)cc23)c1.O=C(O)/C=C\C(=O)O` [Compound A, (E)-N-[3-cyano-7-ethoxy-4-(3-ethynylanilino)-6-quinolyl]-4-(dimethylamino)but-2-enamide maleate], the SZMD4-Z8 impurity turned out to be 0.03% in data set [1] (day 0); 0.04% in data set [1] (high humidity 90±5%, day 7); 0.04% in data set [1] (high humidity 90±5%, day 14); 0.03% in data set [1] (setting [3]); 0.03% in data set [1] (setting [4]); 0.03% in data set [1] (lumination 4500±500 Lux, day 7). The molecule also gave an SZMD4-Z8 impurity in data set [1] (setting [5]) of 0.03%. In addition, the “Total Impurities” value in data set [1] (day 0) worked out at 0.29%; in data set [1] (high humidity 90±5%, day 7), 0.31%; in data set [1] (high humidity 90±5%, day 14), 0.30%; in data set [1] (setting [3]), 0.31%; in data set [1] (setting [4]), 0.30%; in data set [1] (lumination 4500±500 Lux, day 7), 0.40%. Further, the “Total Impurities” value in data set [1] (setting [5]) stood at 0.44%%. In addition, the solubility entry is recorded as “soluble” in data set [2] (in acetic acid); “slightly soluble” in data set [2] (in acetonitrile); “slightly soluble” in data set [2] (in ethanol); “soluble” in data set [2] (in hydrochloric acid solution (0.1 M)); “hardly soluble” in data set [2] (in n-propanol); “not soluble” in data set [2] (in sodium hydroxide solution (0.1 M)). Besides, the solubility entry in data set [2] (in water) was “extremely slightly soluble”. Moreover, in “Dissociation constants”, the “dissociation constant pKa1” value is given as 4.99. Moreover, the “dissociation constant pKa2” value in “Dissociation constants” worked out at 10.26.

These data come from patent publication US12017996B2, “Substituted quinolines and formulations thereof” (JIANGSU MEDOLUTION LTD, priority 2021, dated 2024).
